Source: paper PMC6150407, “Synthesis and In Vitro Antiproliferative Activity of 11-Substituted Neocryptolepines with a Branched ω-Aminoalkylamino Chain” (Molecules : A Journal of Synthetic Chemistry and Natural …, 2017)
Counter-ions that a name gives are not always drawn.

Columns and labels:
[1] = system: human colon adenocarcinoma cell line (HCT 116); assay: Antiproliferative assay (sulforhodamine B, 72 h) against HCT 116; type: cell-based; conditions: HCT 116 cells, mean ± SD
Procedure: (§1) Anti-proliferative assays in vitro were performed in the same manner as described in the literature. The cell lines of human leukemia MV4-11, lung A549, and colon HCT 116 cancer were chosen as representing various tissue origins and BALB/3T3 normal murine fibroblasts to assess the cytotoxicity of tested compounds towards normal cells. The IC50 parameter (half-maximum inhibitory concentration) was calculated based on sulforhodamine B (HCT-116, A549, BALB/3T3) or MTT (MV4-11) assay results after 72 h of exposure. Each compound in a given concentration was tested in triplicate in each experiment, which was repeated three to five times.

[2] = system: Human lung cancer cell line (A-549); assay: Antiproliferative assay (sulforhodamine B, 72 h) against A549; type: cell-based; conditions: A549 cells, mean ± SD
Procedure: as §1

[3] = system: human leukemia MV4-11 cell line; assay: Antiproliferative assay (MTT, 72 h) against human leukemia MV4-11 cell line; type: cell-based; conditions: MV4-11 cells, 72 h exposure, 50% growth inhibition, mean ± SD
Procedure: as §1

[4] = system: normal murine embryonic fibroblast cell line (BALB/3T3); assay: Antiproliferative assay (sulforhodamine B, 72 h) against normal murine fibroblasts BALB/3T3; type: cell-based, mouse; conditions: BALB/3T3 normal murine fibroblasts, mean ± SD
Procedure: as §1

salmon sperm DNA = assay: DNA binding study by UV-Vis absorption spectroscopy
Procedure: The DNA binding studies of compound 2d were performed using UV-Vis absorption spectroscopy with salmon sperm DNA in a phosphate buffer of pH 7.0 at 20 °C. […] The maximum absorption shifted from 256 nm to 289 nm. This illustrated that the mode of 2d binding to DNA was intercalation. The binding constant of 2d to DNA was calculated as 4.12 × 10^5 L·mol^−1, according to a double-reciprocal equation.
Figure 3 (a) UV-Vis absorption spectra of compound 2d at 20 °C. C(2d) = 50 μmol/L, C(DNA) = 0.0, 0.025, 0.05, 0.075, 0.1, 0.125, 0.15, 0.175, 0.2, 0.225, 0.25 μmol/L for curves 1–11 in phosphate buffer solution (pH 7.0) (b) Plot of 1/ΔA vs. 1/[DNA] for 2d-DNA.
The commercially obtained reagents (TCI, Tokyo, Japan) were used directly without further purification. The ^1H-NMR and ^13C-NMR spectra were taken on Varian INOVA-600, Varian INOVA-400, Varian INOVA-300 (Palo Alto, CA, USA), or Bruker 400 spectrometers (Billerica, MA, USA), using CDCl3 or DMSO-d6 as a solvent and tetramethylsilane (TMS) as the internal standard. The NMR spectra of the compounds are in Supplementary Materials. […] The melting points were determined on a RFS-10 hot stage microscope (J-Science, Kyoto, Japan). The UV spectra were recorded with a U-2910 spectrophotometer (Hitachi, Tokyo, Japan) in a 1 cm path length quartz cuvette at an indicated wavelength, and the sample was dissolved in phosphate buffer with 2.5% DMSO.

[5] = system: human (HL-60) leukaemia cell line; design: method as in PMID 11099695; conditions: cited from earlier work
[6] = system: human breast cancer MDA-MB-453 cell line; design: method as in doi:10.1007/s00044-016-1508-z; conditions: MDA-MB-453 breast cancer cell line; cited from earlier work

IC50 ([3]; Homo sapiens) [µM] | IC50 ([1]; Homo sapiens) [µM] | IC50 ([2]; Homo sapiens, A549, 72 h) [µM] | Structure (SMILES) | also measured
0.549 ± 0.108 |  |  | Cn1c2nc3ccccc3c-2c(NCC(C)(C)CNC(=O)Nc2ccccc2)c2ccccc21 [Compound 3a, 1-(2,2-Dimethyl-3-(5-methyl-5H-indolo[2,3-b]quinolin-11-ylamino)propyl)-3-phenylurea] | 
0.427 ± 0.092 |  |  | Cc1ccc2c(c1)c(NCC(C)(C)CNC(=O)Nc1ccccc1)c1c3ccccc3nc-1n2C [Compound 3b, 1-(3-(2,5-Dimethyl-5H-indolo[2,3-b]quinolin-11-ylamino)-2,2-dimethylpropyl)-3-phenylurea] | 
0.79 ± 0.302 |  |  | Cn1c2nc3ccccc3c-2c(NCC(C)(C)CNC(=O)Nc2ccccc2)c2cc(Cl)ccc21 [Compound 3c, 1-(3-(2-Chloro-5-methyl-5H-indolo[2,3-b]quinolin-11-ylamino)-2,2-dimethylpropyl)-3-phenylurea] | 
0.464 ± 0.141 |  |  | Cn1c2nc3ccccc3c-2c(NCC(C)(C)NC(=O)Nc2ccccc2)c2ccccc21 [Compound 3d, 1-(2-Methyl-1-(5-methyl-5H-indolo[2,3-b]quinolin-11-ylamino)propan-2-yl)-3-phenylurea] | 
0.68 ± 0.215 |  |  | Cn1c2nc3ccccc3c-2c(NCC(C)(C)CNC(=S)Nc2ccccc2)c2ccccc21 [Compound 4a, 1-(2,2-Dimethyl-3-(5-methyl-5H-indolo[2,3-b]quinolin-11-ylamino)propyl)-3phenylthiourea] | 
2.33 ± 1.01 |  |  | Cn1c2nc3ccccc3c-2c(NCC(C)(C)NC(=S)Nc2ccccc2)c2cc(Cl)ccc21 [Compound 4b, 1-(1-(2-Chloro-5-methyl-5H-indolo[2,3-b]quinolin-11-ylamino)-2-methylpropan-2-yl)-3-phenylthiourea] | 

The next lines start with the compound.

Structure (SMILES) | IC50 ([3]; Homo sapiens) [µM] | IC50 ([1]; Homo sapiens) [µM] | IC50 ([2]; Homo sapiens, A549, 72 h) [µM] | also measured
N.N.[Cl][Pt][Cl] [Cisplatin, reference compound] |  |  |  | IC50 [1]: 8.5 ± 0.54 µM; IC50 [2]: 9.87 ± 2.4 µM; IC50 [3]: 2.82 ± 0.45 µM; IC50 [4]: 8.7 ± 0.097 µM
Cn1c2nc3ccccc3c-2c(Cl)c2ccccc21 [Compound 1a] | 1.31 ± 0.262 |  |  | 
Cn1c2nc3ccccc3c-2c(NCC(C)(C)CN)c2ccccc21 [Compound 2a, N-(3-Amino-2,2-dimethylpropyl)-5-methyl-5H-indolo[2,3-b]quinolin-11-amine] | 0.15 ± 0.06 | 1.26 ± 0.361 | 1.51 ± 0.198 | IC50 ([4]; Mus musculus, BALB/3T3, 72 h): 4.79 ± 2.02 µM
Cc1ccc2c(c1)c(NCC(C)(C)CN)c1c3ccccc3nc-1n2C [Compound 2b, N-(3-Amino-2,2-dimethylpropyl)-2,5-dimethyl-5H-indolo[2,3-b]quinolin-11-amine] | 0.288 ± 0.075 |  |  | 
Cn1c2nc3ccccc3c-2c(NCC(C)(C)CN)c2cc(Cl)ccc21 [Compound 2c, N-(3-Amino-2,2-dimethylpropyl)-2-chloro-5-methyl-5H-indolo[2,3-b]quinolin-11-amine] | 0.119 ± 0.043 | 1.37 ± 0.351 | 1.46 ± 0.168 | IC50 ([4]; Mus musculus, BALB/3T3, 72 h): 9.13 ± 0.844 µM
Cn1c2nc3ccccc3c-2c(NCC(C)(C)CN)c2cc(Br)ccc21 [Compound 2d, N-(3-Amino-2,2-dimethylpropyl)-2-bromo-5-methyl-5H-indolo[2,3-b]quinolin-11-amine] | 0.308 ± 0.102 |  |  | mode of binding to DNA (salmon sperm DNA; UV-Vis, red shift 256 nm to 289 nm and hypochromic effect, pH 7.0, 20 °C): intercalation; binding constant to DNA (salmon sperm DNA; salmon sperm DNA, phosphate buffer pH 7.0, 20 °C, double-reciprocal equation): 412000 L/mol
Cn1c2nc3ccccc3c-2c(NCC(C)(C)N)c2ccccc21 [Compound 2e, N-(2-Amino-2-methylpropyl)-5-methyl-5H-indolo[2,3-b]quinolin-11-amine] | 0.392 ± 0.188 |  |  | 
Cc1ccc2c(c1)c(NCC(C)(C)N)c1c3ccccc3nc-1n2C [Compound 2f, N-(2-Amino-2-methylpropyl)-2,5-dimethyl-5H-indolo[2,3-b]quinolin-11-amine] | 0.105 ± 0.027 | 2.37 ± 0.481 | 1.79 ± 0.27 | IC50 ([4]; Mus musculus, BALB/3T3, 72 h): 10.6 ± 0.33 µM
Cn1c2nc3ccccc3c-2c(NCC(C)(C)N)c2cc(Cl)ccc21 [Compound 2g, N-(2-Amino-2-methylpropyl)-2-chloro-5-methyl-5H-indolo[2,3-b]quinolin-11-amine] | 0.453 ± 0.209 |  |  | 
Cn1c2nc3ccccc3c-2c(NCC(O)CN)c2cc(Cl)ccc21 (centres unmarked) [Compound 2h, 1-Amino-3-(2-chloro-5-methyl-5H-indolo[2,3-b]quinolin-11-ylamino)propan-2-ol] | 0.042 ± 0.014 | 0.138 ± 0.05 | 0.197 ± 0.028 | 
Cn1c2nc3ccccc3c-2c(NCC(O)CN)c2cc(Br)ccc21 (centres unmarked) [Compound 2k, 1-Amino-3-(2-bromo-5-methyl-5H-indolo[2,3-b]quinolin-11-ylamino)propan-2-ol] | 0.057 ± 0.015 | 0.117 ± 0.055 | 0.199 | IC50 [2]: 0.19 ± 0.027 µM
CC(N)CNc1c2c3ccccc3nc-2n(C)c2ccc(Cl)cc12 (centres unmarked) [Compound 2m, N-(2-Aminopropyl)-2-chloro-5-methyl-5H-indolo[2,3-b]quinolin-11-amine] | 0.103 ± 0.014 | 1.2 ± 0.283 | 1.27 ± 0.118 | IC50 ([4]; Mus musculus, BALB/3T3, 72 h): 1.02 ± 0.017 µM
Cn1c2nc3ccccc3c-2c(NCC(C)(C)N)c2cc(Br)ccc21 [Compound 2n, N-(2-Amino-2-methylpropyl)-2-bromo-5-methyl-5H-indolo[2,3-b]quinolin-11-amine] | 0.078 ± 0.02 | 0.842 ± 0.367 | 0.988 ± 0.164 | IC50 ([4]; Mus musculus, BALB/3T3, 72 h): 0.939 ± 0.018 µM
COc1cccc2c1C(=O)c1c(O)c3c(c(O)c1C2=O)C[C@@](O)(C(=O)CO)C[C@@H]3O[C@H]1C[C@H](N)[C@H](O)[C@H](C)O1 [Doxorubicin HCl, reference compound] | 0.006 ± 0.002 | 0.39 ± 0.098 | 0.329 ± 0.097 | IC50 ([4]; Mus musculus, BALB/3T3, 72 h): 1.08 ± 0.033 µM
Cn1c2nc3ccccc3c-2cc2ccccc21 [neocryptolepine (II), neocryptolepine] |  |  |  | IC50 [5]: 12.7 ± 1.3 µM; IC50 [6]: 7.48 ± 4.42 µM
